Values quoted from earlier work in patent US20110301131A1, “Drug Delivery Implants and Processes for Their Preparation” (priority 2008, published 2011).

Details: bupivacaine used in regional anaesthesia

Half-life: about 3 hours
SMILES: CCCCN1CCCCC1C(=O)Nc1c(C)cccc1C (stereo not shown) [bupivacaine]
